These are literature values, as cited in PMC7867784 (Translational Lung Cancer Research, 2021).

Data set [1] relates to RET-fusion positive NSCLC cells. Conditions: cited from earlier work.
For data set [2] the following is noted: cited from earlier work; for Cmax: AF-002JG study; for AUC0-10: global study.

Molecules are shown by their SMILES. Where two headings read alike, the source gives them in different places.

`CCc1cc2c(cc1N1CCC(N3CCOCC3)CC1)C(C)(C)c1[nH]c3cc(C#N)ccc3c1C2=O` [alectinib]: in data set [1] (in vitro and in vivo, pre-clinical studies), the “growth of RET-rearranged tumor cells” value is listed as “inhibit the growth”. Further, the IC50 – broadly, the concentration that inhibits the measured activity by half – in data set [1] (read-out: IC50 in RET-fusion positive NSCLC cells) was below 300 nM. In data set [2] (460 mg BID), the Cmax (as a rule, the maximum level reached in the sampled fluid or tissue) was 618 ± 165 ng/mL and the AUC0-10 is 4,980±1,340 ng·h/mL. Besides, in data set [2] (600 mg BID), the Cmax is 676 ± 186 ng/mL and the AUC0-10 is 5,400±1,400 ng·h/mL.
